Reference: US20240024291A1, “Uses of Dihydroorotate Dehydrogenase Inhibitors” (University of Maryland, Baltimore, priority 2022, published 2024)

Columns and labels:
[1] = tested on: 913 glioblastoma neurosphere line; assay: CellTiter-Glo in vitro proliferation assay; format: cell-based, human
Description: A Biospherix X3, hypoxic incubation system, was maintained at 37° C., 1% 02, 5% CO2, and 94% N2 (Biospherix, Ltd—Parish, NY) to conduct in vitro hypoxic experiments. Cells were plated, then incubated in normoxia overnight before transferring the culture dishes to hypoxia for the duration indicated in the main text.
[…] Cell Titer-Glo® Luminescent Cell Viability Assay (Promega, Madison, WI, USA) was performed 72 hours after treatment. Luminescence was determined using a Cytation 5 reader and Gen5 software package (BioTek, Winooski, VT, USA).
The compound's efficacy was examined against a collection of genetically diverse patient-derived GSC lines in vitro. The IC50 profiles of compound 1 in the seven GSC lines tested were established using the CellTiter-Glo® reagent and calculated with GraphPad software.

[2] = tested on: EGFRviii expressing 08-387 and 913 glioblastoma cells; assay: Gemcitabine sensitization assay (Alamar blue); format: cell-based, human; conditions: varying dosages of gemcitabine and 100 nM of compound 1
Description: Ten thousand 08-387 or 913 glioblastoma cells per well were seeded in a 96 well plate. […] Post 72 hr of treatment, cell viability was calculated on Alamar blue absorbance reading.
To further evaluate the potential role of EGFR in compound 1 resistance, the 913 and 08-387 neurosphere lines were transduced with lentiviruses encoding EGFRvIll or GFP (as control) and these neurospheres were challenged with a relatively high dose of 1 mM compound 1.

CCn1c(CO)nn(-c2cc(O[C@@H](C)C(F)(F)F)c(C(=O)Nc3c(F)cccc3Cl)cc2F)c1=O [Compound 1, N-(2-chloro-6-fluorophenyl)-4-[4-ethyl-4,5-dihydro-3-(hydroxymethyl)-5-oxo-1H-1,2,4-triazol-1-yl]-5-fluoro-2-[(1S)-2,2,2-trifluoro-1-methylethoxy]-benzamide]
effect of uridine on growth inhibition ([1]; 913, with 100 mM uridine, all concentrations tested): entirely rescued | IC50 ([1]; Homo sapiens, 913, uridine rescue experiment, compound 1 alone, normoxia and hypoxia): 1 to 10 nM | IC50 ([1]; Homo sapiens, 72 h, 913, hypoxia (1% oxygen), 72 hours): 6.7 nM | IC50 ([1]; Homo sapiens, 72 h, 913, normoxia (21% oxygen), 72 hours): 15.3 nM | sensitization to gemcitabine [2]: sensitizes
